#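 1) Cells in 96-well plates. 2) Compound, 48 h, 5 concentrations. 3) Linear interpolation between surrounding doses. 4) Unreached endpoint = highest concentration. GI50 = concentration required for 50% inhibition of growth. TGI is the concentration that stops growth completely.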
# Legend:
# Test in all cases: NCI anticancer screen, dose series, 48 h
# COLO 205 colon = tested on: COLO 205 colon
# HCT-116 colon = tested on: HCT-116 colon
# HL-60(TB) leukemia = tested on: HL-60(TB) leukemia
# K-562 leukemia = tested on: K-562 leukemia
# KM12 colon = tested on: KM12 colon
# MOLT-4 leukemia = tested on: MOLT-4 leukemia
# TK-10 renal = tested on: TK-10 renal
# U251 CNS = tested on: U251 CNS
# UACC-257 melanoma = tested on: UACC-257 melanoma
# UO-31 renal = tested on: UO-31 renal
SMILES,GI50 (COLO 205 colon),TGI (COLO 205 colon),GI50 (HCT-116 colon),TGI (HCT-116 colon),GI50 (HL-60(TB) leukemia),TGI (HL-60(TB) leukemia),GI50 (K-562 leukemia),TGI (K-562 leukemia),GI50 (KM12 colon),TGI (KM12 colon),GI50 (MOLT-4 leukemia),TGI (MOLT-4 leukemia),GI50 (TK-10 renal),TGI (TK-10 renal),GI50 (U251 CNS),TGI (U251 CNS),GI50 (UACC-257 melanoma),TGI (UACC-257 melanoma),GI50 (UO-31 renal),TGI (UO-31 renal)
N=C1C(c2nc3ccccc3s2)=C(O)CN1c1cc(C(F)(F)F)ccc1Cl,30.8 µM,> 100 µM,8.59 µM,62.2 µM,5.75 µM,30.2 µM,3.61 µM,21.3 µM,20.5 µM,> 100 µM,16.3 µM,> 100 µM,52.1 µM,> 100 µM,9.55 µM,> 100 µM,7.65 µM,46.1 µM,2.63 µM,6.18 µM
CN1c2ccc(Cl)cc2C(=O)NC1c1ccc([N+](=O)[O-])s1 (configuration not stated),,66.4 µM,,29 µM,,49.3 µM,,34.8 µM,,31.9 µM,,33.7 µM,,48.5 µM,,32.5 µM,,29.1 µM,,26.5 µM
Cc1cccc(NC(=O)/C(=N\NC(C)(C)C)C2NC(=S)NC2=O)c1C (configuration not stated),,> 100 µM,,> 100 µM,,> 100 µM,,> 100 µM,,> 100 µM,,> 100 µM,,> 100 µM,,> 100 µM,,> 100 µM,,> 100 µM
COC(=O)[C@@H](C)CNS(=O)(=O)N(c1cc(C(F)(F)F)cc(C(F)(F)F)c1)C1CCN(Cc2ccc(F)cc2)CC1,1.88 µM,3.59 µM,4.41 µM,16.4 µM,4.69 µM,18.2 µM,4.63 µM,16 µM,4.92 µM,17.6 µM,11.5 µM,27.4 µM,17.2 µM,32.7 µM,10.2 µM,27.9 µM,16.4 µM,30.8 µM,11.7 µM,26 µM
COc1ccc(/C=C/c2ccnc3ccccc23)c(OC)c1,,> 10 µM,,> 10 µM,,6.91 µM,,> 10 µM,,> 10 µM,,> 10 µM,,> 10 µM,,> 10 µM,,> 10 µM,,> 10 µM
CCOC(=O)CC1(C(=O)OCC)c2[nH]c3ccccc3c2CCN1Cc1ccccc1 (configuration not stated),,34.3 µM,,31.8 µM,,62.5 µM,,> 100 µM,,40.1 µM,,49.1 µM,,> 100 µM,,29 µM,,40.5 µM,,64.1 µM
OC[C@H]1CCCC1O (some centres not stated),,> 100 µM,,> 100 µM,,> 100 µM,,> 100 µM,,> 100 µM,,> 100 µM,,> 100 µM,,> 100 µM,,> 100 µM,,> 100 µM
COc1ccc(-c2n[nH]nc2-c2cc(OC)c(OC)c(OC)c2)cc1,0.0358 µM,0.132 µM,< 0.01 µM,> 100 µM,< 0.01 µM,< 0.01 µM,< 0.01 µM,> 100 µM,< 0.01 µM,0.0445 µM,0.0185 µM,,,50.2 µM,< 0.01 µM,,< 0.01 µM,31.2 µM,0.207 µM,28 µM
